Consider eight molecules from patent publication US11713344B2 (DONG-A ST CO., LTD., priority 2017, dated 2023).

One experiment deals with Human GLP-1 receptors (Homo sapiens, UniProt P43220). Nature of the experiment: GLP-1 receptor activation assay (CRE-luciferase reporter, CHO-K1). For orientation: A reporter such as luciferase makes a cellular process visible.
The target in a further experiment is Human glucagon receptors (Homo sapiens, UniProt P47871). Nature of the experiment: Glucagon receptor activation assay (CRE-luciferase reporter, CHO-K1).

Molecules are shown by their SMILES. A value given as a limit tells only on which side of the number the result lay.

Human glucagon receptors, sequence (P47871 26-477): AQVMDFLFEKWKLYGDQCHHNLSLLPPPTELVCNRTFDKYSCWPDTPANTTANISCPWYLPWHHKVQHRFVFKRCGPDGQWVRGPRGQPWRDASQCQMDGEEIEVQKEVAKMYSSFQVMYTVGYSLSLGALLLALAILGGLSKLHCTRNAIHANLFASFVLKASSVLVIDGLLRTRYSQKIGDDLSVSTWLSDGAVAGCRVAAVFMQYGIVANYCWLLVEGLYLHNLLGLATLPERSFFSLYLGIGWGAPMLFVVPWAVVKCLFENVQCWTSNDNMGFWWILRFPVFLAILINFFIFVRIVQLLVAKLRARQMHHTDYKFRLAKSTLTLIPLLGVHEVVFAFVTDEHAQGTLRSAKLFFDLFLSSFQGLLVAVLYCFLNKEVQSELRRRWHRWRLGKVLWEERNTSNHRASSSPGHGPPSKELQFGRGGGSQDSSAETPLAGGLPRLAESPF
Human GLP-1 receptors, sequence (P43220 24-463): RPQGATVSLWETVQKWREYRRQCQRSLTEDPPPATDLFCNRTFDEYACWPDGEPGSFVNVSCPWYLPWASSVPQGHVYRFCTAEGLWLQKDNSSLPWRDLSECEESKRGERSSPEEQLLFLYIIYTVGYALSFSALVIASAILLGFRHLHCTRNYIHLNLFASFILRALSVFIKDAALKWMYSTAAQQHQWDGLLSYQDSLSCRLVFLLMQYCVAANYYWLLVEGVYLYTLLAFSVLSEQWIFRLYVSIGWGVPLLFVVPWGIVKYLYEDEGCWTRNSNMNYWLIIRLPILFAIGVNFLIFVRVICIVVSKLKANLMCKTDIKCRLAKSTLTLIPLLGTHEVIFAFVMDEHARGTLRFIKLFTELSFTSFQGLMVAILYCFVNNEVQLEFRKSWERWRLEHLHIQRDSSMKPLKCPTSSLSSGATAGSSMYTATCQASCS

With `CCCCCCCCCCCCCCCCCC(=O)N[C@@H](CCC(=O)NCCOCCOCC(=O)NCCOCCOCC(=O)NCCCC[C@H](NC(=O)[C@H](CC(=O)O)NC(=O)[C@H](CC(C)C)NC(=O)[C@H](Cc1ccc(O)cc1)NC(=O)[C@H](CCCCN)NC(=O)[C@H](CO)NC(=O)[C@H](Cc1ccc(O)cc1)NC(=O)[C@H](CC(=O)O)NC(=O)[C@H](CO)NC(=O)[C@@H](NC(=O)[C@H](Cc1ccccc1)NC(=O)[C@@H](NC(=O)CNC(=O)[C@H](CCC(N)=O)NC(=O)C(C)(C)NC(=O)[C@@H](N)Cc1c[nH]cn1)[C@@H](C)O)[C@@H](C)O)C(=O)N[C@@H](CCCNC(=N)N)C(=O)N[C@@H](CCCNC(=N)N)C(=O)N[C@@H](C)C(=O)N[C@@H](CCC(N)=O)C(=O)N[C@@H](CC(=O)O)C(=O)N[C@@H](Cc1ccccc1)C(=O)N[C@H](C(=O)N[C@@H](CCC(N)=O)C(=O)N[C@@H](Cc1c[nH]c2ccccc12)C(=O)N[C@@H](CC(C)C)C(=O)N[C@@H](CCSC)C(=O)N[C@@H](CC(N)=O)C(=O)N[C@H](C(=O)N[C@@H](CCCCN)C(=O)O)[C@@H](C)O)C(C)C)C(=O)O` [Compound 15, H-HAibQGTFTSDYSKYLDZRRAQDFVQWLMNTK-OH], the EC50 on Human GLP-1 receptors and on Human glucagon receptors was less than 0.01 nM in each case.

Turning to `CCCCCCCCCCCCCCCCCC(=O)N[C@@H](CCC(=O)NCCOCCOCC(=O)NCCOCCOCC(=O)NCCCC[C@H](NC(=O)[C@H](C)NC(=O)[C@H](CCCNC(=N)N)NC(=O)[C@H](CCCNC(=N)N)NC(=O)C(C)(C)NC(=O)[C@H](CC(=O)O)NC(=O)[C@H](CC(C)C)NC(=O)[C@H](Cc1ccc(O)cc1)NC(=O)[C@H](CCCCN)NC(=O)[C@H](CO)NC(=O)[C@H](Cc1ccc(O)cc1)NC(=O)[C@H](CC(=O)O)NC(=O)[C@H](CO)NC(=O)[C@@H](NC(=O)[C@H](Cc1ccccc1)NC(=O)[C@@H](NC(=O)CNC(=O)[C@H](CCC(N)=O)NC(=O)C(C)(C)NC(=O)[C@@H](N)Cc1c[nH]cn1)[C@@H](C)O)[C@@H](C)O)C(=O)N[C@@H](CC(=O)O)C(=O)N[C@@H](Cc1ccccc1)C(=O)N[C@H](C(=O)N[C@@H](CCC(N)=O)C(=O)N[C@@H](Cc1c[nH]c2ccccc12)C(=O)N[C@@H](CC(C)C)C(=O)N[C@@H](CCSC)C(=O)N[C@@H](CC(N)=O)C(=O)N[C@H](C(=O)N[C@@H](CCCCN)C(=O)O)[C@@H](C)O)C(C)C)C(=O)O` [Compound 16], the EC50 at Human GLP-1 receptors and on Human glucagon receptors was less than 0.01 nM in each case.

Regarding `CCCCCCCCCCCCCCCCCCCC(=O)N[C@@H](CCC(=O)NCCOCCOCC(=O)NCCOCCOCC(=O)NCCCC[C@H](NC(=O)[C@H](CC(=O)O)NC(=O)[C@H](CO)NC(=O)[C@@H](NC(=O)[C@H](Cc1ccccc1)NC(=O)[C@@H](NC(=O)CNC(=O)[C@H](CCC(N)=O)NC(=O)C(C)(C)NC(=O)[C@@H](N)Cc1c[nH]cn1)[C@@H](C)O)[C@@H](C)O)C(=O)N[C@@H](CO)C(=O)N[C@@H](CCCCN)C(=O)N[C@@H](Cc1ccc(O)cc1)C(=O)N[C@@H](CC(C)C)C(=O)N[C@@H](CC(=O)O)C(=O)NC(C)(C)C(=O)N[C@@H](CCCNC(=N)N)C(=O)N[C@@H](CCCNC(=N)N)C(=O)N[C@@H](C)C(=O)N[C@@H](CCC(N)=O)C(=O)N[C@@H](CC(=O)O)C(=O)N[C@@H](Cc1ccccc1)C(=O)N[C@H](C(=O)N[C@@H](CCC(N)=O)C(=O)N[C@@H](Cc1c[nH]c2ccccc12)C(=O)N[C@@H](CC(C)C)C(=O)N[C@@H](CCSC)C(=O)N[C@@H](CC(N)=O)C(=O)N[C@H](C(=O)N[C@@H](CCCCN)C(=O)O)[C@@H](C)O)C(C)C)C(=O)O` [Compound 8], the EC50 at Human GLP-1 receptors and at Human glucagon receptors was 0.01 to 0.1 nM in each case.

As for `CCCCCCCCCCCCCCCCCC(=O)N[C@@H](CCC(=O)NCCOCCOCC(=O)NCCOCCOCC(=O)NCCCC[C@H](NC(=O)[C@H](CC(=O)O)NC(=O)[C@H](CO)NC(=O)[C@@H](NC(=O)[C@H](Cc1ccccc1)NC(=O)[C@@H](NC(=O)CNC(=O)[C@H](CCC(N)=O)NC(=O)C(C)(C)NC(=O)[C@@H](N)Cc1c[nH]cn1)[C@@H](C)O)[C@@H](C)O)C(=O)N[C@@H](CO)C(=O)N[C@@H](CCCCN)C(=O)N[C@@H](Cc1ccc(O)cc1)C(=O)N[C@@H](CC(C)C)C(=O)N[C@@H](CC(=O)O)C(=O)N[C@H]1CCC(=O)NCCNC(=O)CC[C@@H](C(=O)N[C@@H](CC(=O)O)C(=O)N[C@@H](Cc2ccccc2)C(=O)N[C@H](C(=O)N[C@@H](CCC(N)=O)C(=O)N[C@@H](Cc2c[nH]c3ccccc23)C(=O)N[C@@H](CC(C)C)C(=O)N[C@@H](CCSC)C(=O)N[C@@H](CC(N)=O)C(=O)N[C@H](C(=O)N[C@@H](CCCCN)C(=O)O)[C@@H](C)O)C(C)C)NC(=O)[C@H](C)NC(=O)[C@H](CCCNC(=N)N)NC(=O)[C@H](CCCNC(=N)N)NC1=O)C(=O)O` [Compound 30, H-HAibQGTFTSDZSKYLDERRAEDFVQWLMNTK-OH], the EC50 at Human GLP-1 receptors and on Human glucagon receptors was less than 0.01 nM throughout.

On to `CCCCCCCCCCCCCCCCCC(=O)N[C@@H](CCC(=O)NCCOCCOCC(=O)NCCOCCOCC(=O)NCCOCCOCC(=O)NCCCC[C@H](NC(=O)[C@H](CC(=O)O)NC(=O)[C@H](CO)NC(=O)[C@@H](NC(=O)[C@H](Cc1ccccc1)NC(=O)[C@@H](NC(=O)CNC(=O)[C@H](CCC(N)=O)NC(=O)C(C)(C)NC(=O)[C@@H](N)Cc1c[nH]cn1)[C@@H](C)O)[C@@H](C)O)C(=O)N[C@@H](CO)C(=O)N[C@@H](CCCCN)C(=O)N[C@@H](Cc1ccc(O)cc1)C(=O)N[C@@H](CC(C)C)C(=O)N[C@@H](CC(=O)O)C(=O)N[C@H]1CCC(=O)NCCCC[C@@H](C(=O)N[C@@H](CC(=O)O)C(=O)N[C@@H](Cc2ccccc2)C(=O)N[C@H](C(=O)N[C@@H](CCC(N)=O)C(=O)N[C@@H](Cc2c[nH]c3ccccc23)C(=O)N[C@@H](CC(C)C)C(=O)N[C@@H](CCSC)C(=O)N[C@@H](CC(N)=O)C(=O)N[C@H](C(=O)N[C@@H](CCCCN)C(=O)O)[C@@H](C)O)C(C)C)NC(=O)[C@H](C)NC(=O)[C@H](CCCNC(=N)N)NC(=O)[C@H](CCCNC(=N)N)NC1=O)C(=O)O` [Compound 20, H-HAibQGTFTSDZSKYLDERRAKDFVQWLMNTK-OH], for which the EC50 at Human GLP-1 receptors and at Human glucagon receptors was less than 0.01 nM each time.

With `CSCC[C@H](NC(=O)[C@H](CC(C)C)NC(=O)[C@H](Cc1c[nH]c2ccccc12)NC(=O)[C@H](CCC(N)=O)NC(=O)[C@@H](NC(=O)[C@H](Cc1ccccc1)NC(=O)[C@H](CCC(=O)O)NC(=O)[C@@H]1CCCCNC(=O)CC[C@H](NC(=O)[C@H](CC(=O)O)NC(=O)[C@H](CC(C)C)NC(=O)[C@H](Cc2ccc(O)cc2)NC(=O)[C@H](CCCCN)NC(=O)[C@H](CO)NC(=O)[C@H](Cc2ccc(O)cc2)NC(=O)[C@H](CC(=O)O)NC(=O)[C@H](CO)NC(=O)[C@@H](NC(=O)[C@H](Cc2ccccc2)NC(=O)[C@@H](NC(=O)CNC(=O)[C@H](CCC(N)=O)NC(=O)C(C)(C)NC(=O)[C@@H](N)Cc2c[nH]cn2)[C@@H](C)O)[C@@H](C)O)C(=O)N[C@@H](CCCCN)C(=O)N[C@@H](CCCNC(=N)N)C(=O)N[C@@H](C)C(=O)N1)C(C)C)C(=O)N[C@@H](CC(N)=O)C(=O)N[C@H](C(=O)N[C@@H](CCCCN)C(=O)N[C@@H](CS)C(=O)O)[C@@H](C)O` [Compound 47, reference compound], the EC50 was less than 0.01 nM on Human GLP-1 receptors and 0.01 to 0.1 nM at Human glucagon receptors.

As for `CCCCCCCCCCCCCCCCCC(=O)N[C@@H](CCC(=O)NCCOCCOCC(=O)NCCOCCOCC(=O)NCCCC[C@H](NC(=O)[C@H](CC(=O)O)NC(=O)[C@H](CO)NC(=O)[C@@H](NC(=O)[C@H](Cc1ccccc1)NC(=O)[C@@H](NC(=O)CNC(=O)[C@H](CCC(N)=O)NC(=O)C(C)(C)NC(=O)[C@@H](N)Cc1c[nH]cn1)[C@@H](C)O)[C@@H](C)O)C(=O)N[C@@H](CO)C(=O)N[C@@H](CCCCN)C(=O)N[C@@H](Cc1ccc(O)cc1)C(=O)N[C@@H](CC(C)C)C(=O)N[C@@H](CC(=O)O)C(=O)N[C@H]1CCCCNC(=O)C2CCN(CC2)C(=O)CC[C@@H](C(=O)N[C@@H](CC(=O)O)C(=O)N[C@@H](Cc2ccccc2)C(=O)N[C@H](C(=O)N[C@@H](CCC(N)=O)C(=O)N[C@@H](Cc2c[nH]c3ccccc23)C(=O)N[C@@H](CC(C)C)C(=O)N[C@@H](CCSC)C(=O)N[C@@H](CC(N)=O)C(=O)N[C@H](C(=O)N[C@@H](CCCCN)C(=O)O)[C@@H](C)O)C(C)C)NC(=O)[C@H](C)NC(=O)[C@H](CCCNC(=N)N)NC(=O)[C@H](CCCNC(=N)N)NC1=O)C(=O)O` [Compound 32, H-HA1 bQGTFTSDZSKYLDKRRAEDFVQWLMNTK-OH], the EC50 at Human GLP-1 receptors and at Human glucagon receptors was less than 0.01 nM throughout.

As to `CSCC[C@H](NC(=O)[C@H](CC(C)C)NC(=O)[C@H](Cc1c[nH]c2ccccc12)NC(=O)[C@H](CCC(N)=O)NC(=O)[C@@H](NC(=O)[C@H](Cc1ccccc1)NC(=O)[C@H](CC(=O)O)NC(=O)[C@H](CCC(N)=O)NC(=O)[C@H](C)NC(=O)[C@H](CCCNC(=N)N)NC(=O)[C@H](CCCNC(=N)N)NC(=O)C(C)(C)NC(=O)[C@H](CC(=O)O)NC(=O)[C@H](CC(C)C)NC(=O)[C@H](Cc1ccc(O)cc1)NC(=O)[C@H](CCCCN)NC(=O)[C@H](CO)NC(=O)[C@H](CCCCN)NC(=O)[C@H](CC(=O)O)NC(=O)[C@H](CO)NC(=O)[C@@H](NC(=O)[C@H](Cc1ccccc1)NC(=O)[C@@H](NC(=O)CNC(=O)[C@H](CCC(N)=O)NC(=O)C(C)(C)NC(=O)[C@@H](N)Cc1c[nH]cn1)[C@@H](C)O)[C@@H](C)O)C(C)C)C(=O)N[C@@H](CC(N)=O)C(=O)N[C@H](C(=O)N[C@@H](CCCCN)C(=O)O)[C@@H](C)O` [Compound 39], the EC50 at Human GLP-1 receptors and on Human glucagon receptors was more than 1 nM throughout.

One may read the EC50 as the concentration needed to bring the measured effect to its halfway point. Read a high EC50 as a less potent agent.
